{"source": "patent US6066340A", "about": "“Process for the preparation of microspheres containing biologically active components” (Fidia S.p.A., priority 1991, dated 2000)", "test": "GM1 plasma levels after intramuscular administration", "format": "in vivo, New Zealand rabbits", "conditions": "2 mg/kg i.m.", "protocol": "Microspheres of different dimensions of HYAFF-11 containing GM1 (10-40 μm) were prepared as described in Examples 29-30.\nThe ganglioside was administered by intramuscular route to groups of New Zealand rabbits (weighing 2.5 kg) at a concentration of 2 mg/kg.\nAt the set times, 2.5 ml of blood was withdrawn from the median artery of the ear. Each blood sample was incubated at 37° C. for one hour and then refrigerated overnight at 4° C. The samples were then centrifuged and the upper layer of serum was removed. 2 ml of tetrahydrofurane (THF) were added to 500 μl of serum for the determination of the GM1 content. The sample was stirred and centrifuged and the upper layer was stored. The precipitate was treated twice with […] of THF and 500 μl of phosphate buffer (50 mM) and centrifuged. The upper layers thus obtained were extracted with ethyl ether after separation of the aqueous phase, the organic phase was further extracted with water. The two aqueous phases were then mixed and freeze-dried. The freeze-dried product was redissolved in water and the GM1 content determined by the ELISA test."}
{"substance": "monosialoganglioside GM1", "values": [{"measurement": "Area under curve after i.m. administration of GM1", "setting": "1st study", "value": 127.74, "unit": "µg/h/mL"}, {"measurement": "Area under curve after i.m. administration of GM1", "setting": "2nd study", "value": 134.43, "unit": "µg/h/mL"}]}
